Reference: US20100105626A1, “Novel Analogues of Antimicrobial and Anticancer Peptide Synthesized and Produced from Gaegurin 5” (PROMEDITECH, INC, priority 2006, published 2010)
Where no end group is shown, it is not given here.

Legend:
Assay type in all cases: cell-based
erythrocyte = test system: erythrocyte
Description: 3 ml of blood sample collected from healthy male was mixed with PBS (phosphate buffered saline, isotonic solution) with a ratio of 1:1 (v/v), centrifuged to remove buffy coat and blood plasma and washed with physiological saline solution three times to isolate pure erythrocyte. The erythrocyte was suspended in 20 ml of PBS and pre-incubated in water bath at 37° C. for 15 mins. […] of peptide solution was mixed with […] of erythrocyte solution in order to prepare various mixed solution containing various final concentrations of the peptides, i.e., 100, 50, […] and the solution was incubated in water bath at 37° C. for 15 mins. The supernatant was centrifuged with centrifuge and 100 ml of the supernatant was diluted with ImI of PBS to determine its absorbance at 550 nm. The percentage of hemolysis (%) was determined from the relative attenuation of the absorbance of sample compared with that of the suspension treated with 0.2% Triton X-100.

Proteus mirabilis = assay: Antimicrobial activity, MIC by standard broth microdilution; details: Gram negative
Description: (§1) Antimicrobial activity was determined by the standard broth microdilution method by measuring the MIC values against diverse microorganisms. In brief, Luria-Bertani medium was used as a broth medium. 30 μl of sample (2 mg/ml) prepared from Example 1 and 270 μl of fluid medium were added to lane 1 well of 96-well microtiter plates and to remaining lanes of the wells, only 150 μl of medium was added thereto. 150 μl of sample solution in lane 1 was mixed with lane 2 to prepare diluted solution (×2). With similar diluting method to the above described method, serial dilution was performed to prepare 150 μl of diluted drug solution (×2) to the extent that the final drug concentration reached to the range from 1.6 to 200 μg/ml in respective well. 25 μl of the cell culture being grown to 10^6-10^8 colony forming unit/ml in 3 ml of broth was added to each well and the micro-titer plate was incubated for overnight at 37° C.

Klebsiella pneumoniae = assay: as above; details: Gram negative
Description: as §1

Pseudomonas aeruginosa = assay: as above; details: Gram negative
Description: as §1

Bacillus subtilis = assay: as above; details: Gram-positive
Description: as §1

Escherichia coli = assay: as above; details: Gram negative
Description: as §1

Staphylococcus aureus = assay: as above; details: Gram-positive
Description: as §1

Staphylococcus epidermis = assay: as above; details: Gram-positive
Description: as §1

Micrococcus luteus = assay: as above; details: Gram-positive
Description: as §1

Salmonella typhimurium = assay: as above; details: Gram negative
Description: as §1

Shigella dysentariae = assay: as above; details: Gram negative
Description: as §1

[1] = test system: A549 (lung cancer cell line)
Source text: (§2) In order to confirm the anticancer activity of the analogues prepared by Example 1 on A549 (lung cancer cell line, ATCC, U.S.A.), A498 (kidney cancer cell line, Korean Cell Line Bank, Korea), HCT116 (colon carcinoma cell line, Korean Cell Line Bank, Korea), MKN45 (stomach cell line, Korean Cell Line Bank, Korea), NCI-H630 (liver cancer cell line, Korean Cell Line Bank, Korea), PC-3 (prostatic carcinoma cell line, Korean Cell Line Bank, Korea), SK-MEL-2 (skin cancer cell line, Korean Cell Line Bank, Korea) and SK-OV-3 (human solid cancer cell line, Korean Cell Line Bank, Korea), the standard microculture MTT method was performed with the procedure described in the literature (Angelina Quintero et al., J Pharm Pharmaceut Sci, Vol. 2, No. 3, pp 108-112, 1999; Ashtosh K. Pathak et al., J. Am Coll Nutr., Vol. 21, No. 5, pp 416-421, 2002). Each cell line was poured into 96 well microtiter plates and cultivated at 37° C. for 24 hrs. When the cell reached to exponential growth phase, the test sample was added to each plates and each cell was inoculated into the plates added with both of dissolved and non-dissolved DMSO to culture for 3 days. 50 μl of MTT (2 mg/ml) (M5655, SIGMA, U.S.A.) was added thereto and cultured for 3 hrs. The supernatant was removed and the wells were shaken weakly to dissolve formazan crystals. 150 μl of DMSO was added thereto. The non-treated well with cell was set to blank and the wells non-treated with drug were set to standard based on the cell viability. The UV absorbance was measured by microplate reader (SAFIRE, Tecan, Austria) to calculate the cell viability at 570 nm. The inhibition rate of cell growth was calculated by following Math FIG. 1. inhibition rate of cell growth (%)={1−(absorbance of treated cells/absorbance of non-treated cells)}×100 Math Figure 1 The IC value of each cell was calculated by the amount of drug causing to 50% reduction of the absorbance comparing with that of non-treated cells.

[2] = test system: HCT116 (colon carcinoma cell line)
Source text: as §2

[3] = test system: SK-OV-3 (human solid cancer cell line)
Source text: as §2

[4] = test system: SK-MEL-2 (skin cancer cell line)
Source text: as §2

[5] = test system: MKN45 (stomach cell line)
Source text: as §2

## FLGWLFKWASKVL-NH2 [W4,8-GGN5N13, F-L-G-W-L-F-K-W-A-S-K-V-L]
erythrocyte
  hemolytic activity (in words): potent hemolytic activity

## FLGWLFKWASK-NH2 (C-terminus assumed) [W4,8-GGN5N11]
Proteus mirabilis
  Minimal inhibitory concentration: >200 µg/mL
Klebsiella pneumoniae
  Minimal inhibitory concentration: 50 µg/mL
Pseudomonas aeruginosa
  Minimal inhibitory concentration: >200 µg/mL
Bacillus subtilis
  Minimal inhibitory concentration: 3.2 µg/mL
Escherichia coli
  Minimal inhibitory concentration: 50 µg/mL
Staphylococcus aureus
  Minimal inhibitory concentration: 1.6 µg/mL
Staphylococcus epidermis
  Minimal inhibitory concentration: 3.2 µg/mL
Micrococcus luteus
  Minimal inhibitory concentration: 3.2 µg/mL
Salmonella typhimurium
  Minimal inhibitory concentration: >200 µg/mL
Shigella dysentariae
  Minimal inhibitory concentration: 12.5 µg/mL

## FLWWLFKWAWK-NH2 [model 28, F-L-W-W-L-F-K-W-A-W-K]
[1]
  IC50: 15.9 µM
[2]
  IC50: 14.8 µM
[3]
  IC50: 14.6 µM
[4]
  IC50: 13.2 µM
[5]
  IC50: 13.8 µM

## FLKWLFKWAKK-NH2 [model 26, F-L-K-W-L-F-K-W-A-K-K]
[1]
  IC50: 14.5 µM
[2]
  IC50: 14.8 µM
[3]
  IC50: 12.6 µM
erythrocyte
  hemolytic activity (in words): much less hemolysis than the others

## FLGWLFKWAWK-NH2 [model 27, F-L-G-W-L-F-K-W-A-W-K]
[4]
  IC50: 14 µM
